# Measurements published in patent US10150728B2, “Alkylene derivatives” (Shionogi & Co., Ltd., priority 2013, dated 2018).
# Molecular target: recombinant human ACC2 (Homo sapiens (Human), UniProt O00763)
# Assay: Measurement of inhibitory activity on human ACC2 (MALDI-TOF MS, acetyl CoA to malonyl CoA conversion)
# Assay type: biochemical
# Conditions: Table 154
# From the text: Preparation 1: Preparation of Recombinant Human ACC2
# After a cDNA encoding human ACC2 (27 amino acid residue to 2458 amino acid residues from the N-terminus) was cloned from human kidney cDNA library (Clontech), human ACC2 gene containing His-tag sequence at 5′ terminus was inserted into pFastBac1 (Invitrogen). Recombinant baculovirus was generated using Bac-to-Bac baculovirus expression system (Invitrogen) according to the manufacturer's protocol. To express human ACC2, Sf-9 cells were infected with recombinant baculovirus. After infected cells were disrupted, the filtrated lysate was subjected to Ni-affinity chromatography and anion-exchange chromatography. The fractions containing human ACC2 protein were pooled as recombinant human ACC2 solution.
# The Measurement of Inhibitory Activity on Human ACC1 and the ACC2
# Recombinant human ACC1 and recombinant human ACC2, which were prepared by the method mentioned above, were preincubated with assay buffer solution (50 mM HEPES-KOH (pH 7.4), 10 mM magnesium chloride, 6-10 mM potassium citrate, 4 mM reduced form of glutathione, 1.5 mg/ml bovine serum albumin) for one hour. Then, 0.2 μL of each this invention compound solution (in DMSO) were dispensed to 384-well microplate, 5 μL of the preincubated enzyme solution and 5 μL of substrate solution (50 mM HEPES-KOH (pH 7.4), 1 mM ATP, 0.8 mM acetyl CoA and 25-50 mM potassium bicarbonate) were added to microplate. After centrifugation and shaking, the reaction mixtures were incubated in a humidified box at room temperature for 1 to 3 hours. After the incubation, the enzyme reactions were stopped by the addition of EDTA. Then, after the samples were cocrystallized with CHCA (α-cyano-4-hydroxy cinnamic acid) matrices on MALDI target plate, by using the matrix assist laser […] time-of-flight mass spectrometer (MALDI-TOF MS), samples were measured in reflector negative mode. Deprotonated ions of acetyl CoA (AcCoA) of substrate and malonyl CoA (MalCoA) of the reaction product were detected, then, the conversion rates of acetyl CoA to malonyl CoA was calculated by the intensity of [MalCoA-H]−/(Intensity of [MalCoA-H]−+Intensity of [AcCoA-H]−) using each signal strength. […] In addition, potassium citrate concentrations in assay buffer solution, potassium hydrogen carbonate concentrations in substrate solution and incubation time were adjusted by each lot of enzyme.
# recombinant human ACC2, sequence (O00763 27-2458): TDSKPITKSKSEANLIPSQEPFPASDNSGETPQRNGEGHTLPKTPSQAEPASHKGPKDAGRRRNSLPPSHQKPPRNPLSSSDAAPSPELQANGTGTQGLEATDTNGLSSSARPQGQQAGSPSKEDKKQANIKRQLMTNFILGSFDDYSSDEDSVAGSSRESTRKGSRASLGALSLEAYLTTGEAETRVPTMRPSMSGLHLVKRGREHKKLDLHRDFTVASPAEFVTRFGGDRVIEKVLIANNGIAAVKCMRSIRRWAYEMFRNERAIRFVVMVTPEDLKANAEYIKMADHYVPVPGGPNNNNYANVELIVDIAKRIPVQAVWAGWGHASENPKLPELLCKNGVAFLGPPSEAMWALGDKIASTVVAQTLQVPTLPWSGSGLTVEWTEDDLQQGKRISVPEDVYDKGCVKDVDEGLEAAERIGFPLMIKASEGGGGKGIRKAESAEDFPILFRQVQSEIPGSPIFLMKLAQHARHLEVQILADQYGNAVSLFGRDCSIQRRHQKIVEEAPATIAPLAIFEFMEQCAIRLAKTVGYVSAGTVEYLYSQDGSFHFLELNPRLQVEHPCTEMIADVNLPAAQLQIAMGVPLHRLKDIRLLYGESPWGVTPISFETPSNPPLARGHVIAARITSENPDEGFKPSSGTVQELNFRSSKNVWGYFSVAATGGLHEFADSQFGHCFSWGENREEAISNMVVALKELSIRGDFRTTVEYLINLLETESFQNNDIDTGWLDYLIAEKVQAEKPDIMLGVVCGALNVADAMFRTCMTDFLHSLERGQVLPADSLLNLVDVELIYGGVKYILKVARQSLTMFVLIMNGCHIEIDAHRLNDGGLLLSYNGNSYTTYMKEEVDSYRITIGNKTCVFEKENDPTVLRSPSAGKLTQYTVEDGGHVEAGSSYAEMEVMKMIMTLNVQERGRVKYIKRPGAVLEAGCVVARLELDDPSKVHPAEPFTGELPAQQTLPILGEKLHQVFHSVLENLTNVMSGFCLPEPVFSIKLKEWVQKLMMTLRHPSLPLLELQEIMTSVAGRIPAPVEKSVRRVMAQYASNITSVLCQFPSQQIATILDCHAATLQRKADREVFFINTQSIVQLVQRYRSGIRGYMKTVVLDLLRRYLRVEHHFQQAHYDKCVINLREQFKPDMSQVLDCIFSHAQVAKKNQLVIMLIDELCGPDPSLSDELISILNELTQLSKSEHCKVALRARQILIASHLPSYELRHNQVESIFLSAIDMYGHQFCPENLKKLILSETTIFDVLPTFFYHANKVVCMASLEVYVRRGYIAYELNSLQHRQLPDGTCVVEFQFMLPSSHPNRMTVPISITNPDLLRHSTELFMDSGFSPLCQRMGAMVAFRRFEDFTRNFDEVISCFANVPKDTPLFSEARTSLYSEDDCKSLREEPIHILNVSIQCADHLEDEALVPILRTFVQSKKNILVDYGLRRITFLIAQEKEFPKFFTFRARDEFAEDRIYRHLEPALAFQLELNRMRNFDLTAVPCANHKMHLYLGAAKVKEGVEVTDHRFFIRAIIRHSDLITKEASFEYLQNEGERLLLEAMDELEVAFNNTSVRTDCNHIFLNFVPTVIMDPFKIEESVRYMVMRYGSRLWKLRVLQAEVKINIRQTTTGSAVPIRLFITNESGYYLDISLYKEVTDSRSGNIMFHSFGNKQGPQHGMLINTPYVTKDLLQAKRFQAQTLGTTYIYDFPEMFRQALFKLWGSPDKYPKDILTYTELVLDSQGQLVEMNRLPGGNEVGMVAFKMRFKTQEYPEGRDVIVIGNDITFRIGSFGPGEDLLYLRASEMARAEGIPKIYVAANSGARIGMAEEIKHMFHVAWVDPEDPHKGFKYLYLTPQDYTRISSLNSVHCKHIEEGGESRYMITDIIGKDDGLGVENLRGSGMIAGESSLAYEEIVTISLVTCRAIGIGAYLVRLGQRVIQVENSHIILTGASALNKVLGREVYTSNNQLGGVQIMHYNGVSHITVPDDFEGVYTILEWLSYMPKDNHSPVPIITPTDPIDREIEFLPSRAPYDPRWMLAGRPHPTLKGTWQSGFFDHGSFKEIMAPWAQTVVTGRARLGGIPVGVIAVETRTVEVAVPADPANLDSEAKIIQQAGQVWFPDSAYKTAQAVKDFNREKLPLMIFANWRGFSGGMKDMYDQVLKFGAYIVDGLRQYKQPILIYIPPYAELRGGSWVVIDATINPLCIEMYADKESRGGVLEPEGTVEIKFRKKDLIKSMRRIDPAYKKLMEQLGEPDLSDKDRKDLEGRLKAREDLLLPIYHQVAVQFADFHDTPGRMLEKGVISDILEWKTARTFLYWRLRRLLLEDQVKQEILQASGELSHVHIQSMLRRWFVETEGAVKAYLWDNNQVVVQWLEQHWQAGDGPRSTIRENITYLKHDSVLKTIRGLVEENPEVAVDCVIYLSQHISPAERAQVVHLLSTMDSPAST
structure (smiles),measurement,value
CCCc1ccc(Oc2ccc(OC[C@H](C)NC(C)=O)cn2)c(Cl)c1 [Compound I-004],IC50,3730 nM
CCCc1ccc(Oc2ccc(OC[C@H](C)NC(C)=O)cc2)c(Cl)c1 [Compound I-005],IC50,184 nM
CCCc1ccc(Oc2ccc(OC[C@H](C)NC(N)=O)cc2)c(Cl)c1 [Compound I-006],IC50,348 nM
CCCc1ccc(Oc2ccc(OC[C@H](C)NC(=O)NCC)cc2)c(Cl)c1 [Compound I-007],IC50,1390 nM
CC(=O)N[C@@H](C)CC(=O)c1ccc(Oc2ccc(OCC3CC3)cc2Cl)nc1 [Compound I-008],IC50,220 nM
CCCc1ccc(Oc2ccc(C(=O)C[C@H](C)NC(C)=O)nc2)c(Cl)c1 [Compound I-009],IC50,1060 nM
CCCc1ccc(Oc2ccc(OCC[C@H](C)NC(C)=O)cc2)c(Cl)c1 [Compound I-010],IC50,1010 nM
CCCc1ccc(Oc2ccc(O[C@@H](C)[C@H](C)NC(C)=O)nc2)c(Cl)c1 [Compound I-011],IC50,120 nM
CC(=O)N[C@@H](C)COc1ccc(Oc2ccc3nc(C(C)C)sc3c2Cl)cn1 [Compound I-012],IC50,64 nM
CC(=O)N[C@@H](C)COc1ccc(Oc2ccc3nc(C(C)C)sc3c2C#N)cn1 [Compound I-013],IC50,395 nM
CC(=O)N[C@@H](C)[C@H](C)Oc1ccc(Oc2ccc3nc(C(C)C)sc3c2Cl)cn1 [Compound I-014],IC50,759 nM
CCC(C)(C)c1ccc(Oc2ccc(OC[C@H](C)NC(C)=O)nc2)c(Cl)c1 [Compound I-016],IC50,400 nM
CC(=O)N[C@@H](C)COc1ccc(Oc2ccc3nc(C(C)C)sc3c2F)cn1 [Compound I-018],IC50,75 nM
CCCc1ccc(Oc2cnc(OC[C@H](C)NC(C)=O)cn2)c(Cl)c1 [Compound I-021],IC50,502 nM
CC(=O)N[C@@H](C)COc1ccc(Oc2ccc3c(c2Cl)CCN(C(=O)OC(C)(C)C)C3)cn1 [Compound I-022],IC50,1250 nM
CC(=O)N[C@@H](C)COc1ccc(Oc2ccc3c(c2Cl)CCN(c2ncc(F)cn2)C3)cn1 [Compound I-023],IC50,38 nM
CC(C)c1nc2ccc(Oc3ccc(OC[C@H](C)NC(N)=O)nc3)c(Cl)c2s1 [Compound I-024],IC50,133 nM
CC(C)c1nc2ccc(Oc3ccc(OC[C@H](C)NC(=O)CO)nc3)c(Cl)c2s1 [Compound I-025],IC50,652 nM
CC(=O)N[C@@H](C)COc1cnc(Oc2ccc3nc(C(C)C)sc3c2F)cn1 [Compound I-026],IC50,20 nM
CC(=O)N[C@@H](C)COc1cnc(Oc2ccc3nc(C(C)(C)O)sc3c2Cl)cn1 [Compound I-027],IC50,378 nM
CC(=O)N[C@@H](C)COc1cnc(Oc2ccc3nc(C(C)(F)F)sc3c2Cl)cn1 [Compound I-028],IC50,28 nM
CC(=O)N[C@@H](C)COc1ccc(Oc2cc(F)c3nc(C(C)C)sc3c2Cl)cn1 [Compound I-029],IC50,68 nM
CC(=O)N[C@@H](C)COc1cnc(Oc2ccc3nc(C(C)C)oc3c2F)cn1 [Compound I-031],IC50,52 nM
CC(=O)N[C@@H](C)COc1cnc(Oc2c(F)cc3nc(C(C)C)sc3c2F)cn1 [Compound I-032],IC50,52 nM
CCC(F)(F)c1nc2ccc(Oc3cnc(OC[C@H](C)NC(C)=O)cn3)c(Cl)c2s1 [Compound I-033],IC50,50 nM
CC(=O)N[C@@H](C)COc1cnc(Oc2ccc3nc(C4CC4)sc3c2F)cn1 [Compound I-034],IC50,49 nM
CC(=O)N[C@@H](C)COc1cnc(Oc2ccc3nc(C4(C)CC4)sc3c2Cl)cn1 [Compound I-035],IC50,102 nM
CC(=O)N[C@@H](C)COc1cnc(Oc2ccc3nc(C(C)(F)F)sc3c2F)cn1 [Compound I-036],IC50,15 nM
CC(=O)N[C@@H](C)COc1cnc(Oc2ccc3nc(C(C)C)sc3c2Cl)cn1 [Compound I-038],IC50,72 nM
CCOc1nc2ccc(Oc3cnc(OC[C@H](C)NC(C)=O)cn3)c(Cl)c2s1 [Compound I-039],IC50,16 nM
CC(=O)N[C@@H](C)COc1cnc(Oc2ccc3nc(C(C)(F)F)sc3c2C#N)cn1 [Compound I-041],IC50,102 nM
CC(=O)N[C@@H](C)CO[C@H]1CC[C@H](Oc2ccc3nc(C(C)C)sc3c2F)CC1 [Compound I-042],IC50,15 nM
